From PMC8765781, “A platform of assays for the discovery of anti-Zika small-molecules with activity in a 3D-bioprinted outer-blood-retina model” (PLoS ONE, 2022) come the findings set out here.

Structures are written as SMILES. Like-named read-outs stand apart in the source and are kept apart here. Some results are limits rather than exact numbers.

The subject of data set [1] is wild-type ZIKV (Ugandan MR766 strain) in Vero cells. Nature of the data set: ZIKV cytopathic effect (CPE) inhibition qHTS assay, CellTiter-Glo readout. Conditions: for AC50 / IC50: Zika virus; for IC50: read-out: ZIKV-infection (CPE, ZIKV Antiviral Assays), IC50. It counts as cell-based, Zika virus. In general terms: Cytopathic effects are the visible damage that an infection or toxin causes in cultured cells.

In data set [2] the test system is caspase-3 activity induced by ZIKV in Vero cells. Nature of the data set: cells. It counts as cell-based. Conditions: Zika virus, read-out: Caspase 3 (ZIKV Antiviral Assays), IC50.
Data set [3] concerns ZIKV-RLuc (Cambodian strain FSS13025). Nature of the data set: microbe, parasite or virus in culture. It counts as cell-based, Zika virus. To be noted: Zika virus, Vero, 48 h, read-out: Rluc-ZIKV (ZIKV Antiviral Assays), IC50.
Data set [4] concerns ZIKV-mCherry (Cambodian strain FSS13025). Nature of the data set: microbe, parasite or virus in culture. Conditions: for AC50: Zika virus, Vero. It is filed as cell-based, Zika virus.
The nature of the next data set: in vitro. To be noted: African green monkey.
Where [5] appears, read: Vero, from Hill fit of the response curve, 50% of maximum activity response, 194 cherry-picked compounds, protocol name not given, read-out: AC50.
Setting [6] is: Vero, potency in log units (Molar) from Hill fit of the response curve, 194 cherry-picked compounds, protocol name not given, read-out: Log AC50 (converted).
The mark [7] stands for this setting: Vero cells, wild-type ZIKV MOI 1, 48 hr, unit inferred.
The mark [8] stands for this setting: curve class v2 (Inglese et al. 2006).
[9] abbreviates: difference between neutral response and maximum compound response.
[10] abbreviates: ZIKV-infected Vero cells, 48 hr, unit inferred.
The mark [11] stands for this setting: read-out: Log AC50 (M) (converted).
Setting [12] is: Vero, read-out: Log AC50 (M) (converted).

In general, AC50 refers to the concentration giving half of the maximal activity seen. In general, IC50 refers to the concentration that inhibits the measured activity by half.

Regarding `C[C@H]1CC[C@@]2(OC1)O[C@H]1CC3[C@@H]4CC[C@@H]5C[C@@H](O[C@@H]6O[C@H](CO)[C@@H](O[C@@H]7O[C@@H](C)[C@H](O)[C@@H](O)[C@H]7O)[C@H](O)[C@H]6O[C@@H]6O[C@H](CO)[C@@H](O)[C@H](O)[C@H]6O)CC[C@]5(C)C4CC[C@]3(C)[C@H]1[C@@H]2C` (some centres unmarked) [NCGC00347372-02, Asparanin B], the AC50 in data set [1] (setting [5]) is 1.1e-05 M; in data set [1] (setting [6]) it was 1.1e-05 M; in data set [4], 1.27e-06 M; in data set [4] (setting [11]), 1.27e-06 M. For the same compound, the IC50 in data set [1] (setting [7]) is 11 µM; in data set [2] (setting [10]), 6.98 µM; in data set [3], 6.19 µM. For the same compound, the “CC-v2 (curve class classification of the dose response curve)” value in data set [1] (setting [8]) is -2.2. The same compound came in with an Efficacy in data set [1] (setting [9]) of -63.699. In data set [4], the “CC-v2 (curve class of the dose response curve)” value is listed as -1.2. The “Efficacy (difference between neutral response and maximum compound response)” value in data set [4] is listed as -51.182. Moreover, the “Max Resp (difference between neutral response and response at highest compound concentration)” value in data set [4] is given as -100.305. For the same compound, the CC50 at 48 h in the data set “in vitro” was more than 50 µM.
Regarding `CC1(C)CC2C3=CCC4[C@@]5(C)CC[C@H](OC6OCC(O)C(OC7OC(CO)C(O)C(O)C7O)C6O)C(C)(C)C5CC[C@@]4(C)[C@]3(C)C[C@H](O)[C@@]2(CO)[C@H](OC(=O)c2ccccc2)C1` (some centres unmarked) [NCGC00347604-02], the concentration at half-maximal activity (AC50) in data set [1] (setting [5]) and in data set [1] (setting [6]) was 7.78e-06 M in each case. Besides, the IC50 in data set [1] (setting [7]) is 7.78 µM; in data set [2] (setting [10]), more than 48 µM; in data set [3], 5.52 µM. Also, the “CC-v2 (curve class classification of the dose response curve)” value in data set [1] (setting [8]) was -3. For the same compound, the Efficacy in data set [1] (setting [9]) is recorded as -34.889. Further, the “CC-v2 (curve class of the dose response curve)” value in data set [4] is -1.4. Further, the “Efficacy (difference between neutral response and maximum compound response)” value in data set [4] is reported as -68.489. Moreover, the “Max Resp (difference between neutral response and response at highest compound concentration)” value in data set [4] was -100.29. The same compound displayed a CC50 in the data set “in vitro” of more than 50 µM.
For the compound `C/C=C(\C)C(=O)O[C@H]1[C@H](OC(C)=O)[C@]2(CO)[C@H](O)[C@H](O)[C@]3(C)C(=CCC4[C@@]5(C)CC[C@H](O[C@@H]6O[C@H](C(=O)O)[C@@H](O)[C@H](O[C@@H]7OC[C@H](O)[C@H](O[C@@H]8OC[C@H](O)[C@H](O)[C@H]8O)[C@H]7O)[C@H]6O[C@@H]6O[C@H](CO)[C@@H](O)[C@H](O)[C@H]6O)C(C)(C)C5CC[C@]43C)[C@@H]2CC1(C)C` (some centres unmarked) [NCGC00381072-01], in data set [1], the Efficacy was -30.676. Besides, the concentration at half-maximal activity (AC50) in data set [1] (Vero) is 8.71e-06 M; in data set [1] (setting [12]) it was 8.71e-06 M; in data set [4], 5.66e-06 M; in data set [4] (setting [11]) it was 5.66e-06 M. Further, the IC50 in data set [1] (Vero, 48 h) was 8.71 µM; in data set [2] (Vero, 48 h), 2.52 µM; in data set [3], 4.45 µM. The “CC-v2 (curve class of the dose response curve)” value in data set [4] is reported as -2.2. Besides, in data set [4], the “Efficacy (difference between neutral response and maximum compound response)” value was -56.385. In data set [4], the “Max Resp (difference between neutral response and response at highest compound concentration)” value is recorded as -100.02. Besides, in the data set “in vitro”, the CC50 was more than 50 µM.
On to `CC1=CC[C@]2(C(=O)O[C@@H]3O[C@H](CO[C@@H]4O[C@H](CO)[C@@H](O[C@@H]5O[C@@H](C)[C@H](O)[C@@H](O)[C@H]5O)[C@H](O)[C@H]4O)[C@@H](O)[C@H](O)[C@H]3O)CC[C@]3(C)C(CCC4[C@@]5(C)C[C@@H](O)[C@H](O)[C@@](C)(CO)C5CC[C@]43C)C2C1C` (some centres unmarked) [NCGC00381125-01], for which, in data set [1], the “CC-v2 (curve class classification of the dose response curve)” value is -3. The Efficacy in data set [1] is on record as -73.731. The half-maximal activity concentration (AC50) in data set [1] (Vero) and in data set [1] (setting [12]) was 6.18e-06 M throughout. Also, the 50% inhibitory concentration (IC50) in data set [1] (Vero, 48 h) turned out to be 6.18 µM; in data set [2] (Vero, 48 h), 0.01 µM; in data set [3], 0.003 µM. Further, the “CC-v2 (curve class of the dose response curve)” value in data set [4] is -1.4. For the same compound, the “Efficacy (difference between neutral response and maximum compound response)” value in data set [4] is -51.276. The “Max Resp (difference between neutral response and response at highest compound concentration)” value in data set [4] is on record as -44.108. The CC50 at 48 h in the data set “in vitro” was more than 50 µM.
